How the values were obtained:
Assay in all cases: 3' UTR reporter interaction score (median-centred robust z-score of log2 firefly/Renilla activity); higher = less repression of the 3' UTR reporter
Conditions in all cases: HEK293T; 48 h
BRCA2 = tested on: BRCA2
Method in brief: (§1)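 Firefly and Renilla luciferase activities were read 48 h post-transfection in HEK293T cells (10,000/well, 96-well plates). The cells had received 100 ng firefly luc2P reporter bearing the gene's 3' UTR, 20 ng Renilla pRL-TK control and 2.5 pmol miRNA mimic via DharmaFECT Duo. The interaction score, where more negative means interaction, is a per-plate robust z-score (median, median absolute deviation) of the log firefly/Renilla ratio, median-centred per miRNA and averaged over at least two independent screens.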

EZH2 = tested on: EZH2
Method in brief: as §1

FBXW7 = tested on: FBXW7
Method in brief: as §1

HRAS = tested on: HRAS
Method in brief: as §1

MYB = tested on: MYB
Method in brief: as §1

MYCN = tested on: MYCN
Method in brief: as §1

MYC = tested on: MYC
Method in brief: as §1

MYT1L = tested on: MYT1L
Method in brief: as §1

NOTCH1 = tested on: NOTCH1
Method in brief: as §1

PHF6 = tested on: PHF6
Method in brief: as §1

PHOX2B = tested on: PHOX2B
Method in brief: as §1

RB1 = tested on: RB1
Method in brief: as §1

TP53 = tested on: TP53
Method in brief: as §1

ZEB2 = tested on: ZEB2
Method in brief: as §1

Sequence | 3' UTR reporter interaction score (BRCA2) | 3' UTR reporter interaction score (EZH2) | 3' UTR reporter interaction score (FBXW7) | 3' UTR reporter interaction score (HRAS) | 3' UTR reporter interaction score (MYB) | 3' UTR reporter interaction score (MYCN) | 3' UTR reporter interaction score (MYC) | 3' UTR reporter interaction score (MYT1L) | 3' UTR reporter interaction score (NOTCH1) | 3' UTR reporter interaction score (PHF6) | 3' UTR reporter interaction score (PHOX2B) | 3' UTR reporter interaction score (RB1) | 3' UTR reporter interaction score (TP53) | 3' UTR reporter interaction score (ZEB2)
GAUUGCUCUGCGUGCGGAAUCGAC | 0.00588 | 0.471 | -0.34 | -0.851 | -0.474 | -0.19 | -2.18 | -1.1 | -0.0878 | 0.0123 | 0.972 | 0.524 | -0.352 | -0.205
UGCCUGGGUCUCUGGCCUGCGCGU | -0.375 | -0.794 | -2.61 | -1.95 | 0.325 | -0.0821 | 0.101 | -0.227 | 0.3 | 0.782 | -0.846 | -2.47 | 0.35 | 0.387
UCCAGCAUCAGUGAUUUUGUUGA | 0.64 | 0.0592 | -0.0681 | -0.335 | 0.387 | -0.105 | -0.461 | -0.429 | -0.191 | 0.0153 | 1.43 | -0.243 | -0.53 | 0.915
UGUAAACAUCCUACACUCUCAGC | 0.774 | -0.7 | 0.711 | 0.698 | 0.661 | -0.445 | -0.915 | 0.183 | -1.62 | 0.545 | 0.58 | 0.235 | 0.239 | -2.01
UAGGCAGUGUCAUUAGCUGAUUG | 1.04 | -5.52 | -1.11 | 1.22 | -2.78 | -3.63 | -5.22 | 0.837 | -2.66 | 0.274 | 1.92 | -0.567 | 0.66 | -1.58
UAACAGUCUACAGCCAUGGUCG | -0.186 | 1.32 | -0.629 | 0.64 | 0.1 | 0.783 | 0.473 | 1 | -0.392 | -0.351 | -0.125 | -1.41 | -1.07 | -0.631
UGCACCAUGGUUGUCUGAGCAUG | 0.899 | 0.00438 | -1.84 | -0.315 | 0.379 | -5.44 | -0.0708 | 0.0254 | -0.682 | 0.727 | -1.01 | 0.168 | 0.617 | -1.45
CAAAACUGGCAAUUACUUUUGC | -0.307 | 0.755 | -2.13 | 0.367 | -1.52 | -0.107 | -0.183 | -0.395 | 0.158 | -1.26 | -0.532 | 0.322 | 0.751 | 0.0176
AGGCACGGUGUCAGCAGGC | -0.203 | 0.629 | 0.393 | -0.153 | 0.171 | -0.274 | 0.509 | 0.478 | 0.0125 | 0.283 | 0.32 | 0.0845 | -0.839 | -0.659
CACUCAGCCUUGAGGGCACUUUC | 0.623 | 0.269 | -1.64 | -0.0814 | 1.11 | 1.12 | -1.6 | -1.55 | 0.801 | -4 | 0.0189 | 0.059 | 0.0719 | 0.556
GGCUGGCUCGCGAUGUCUGUUU | -2.13 | -0.172 | 0.4 | -0.0445 | -2.48 | 0.967 | -0.237 | 1.15 | -0.649 | 0.0685 | 0.166 | 0.183 | 0.4 | 0.922
CUCCAGAGGGAUGCACUUUCU | -0.169 | 0.363 | -0.219 | -0.937 | -0.659 | -0.234 | 0.629 | 0.128 | 0.885 | 1.04 | 1.08 | 0.459 | 0.339 | -0.701
AGUUAAUGAAUCCUGGAAAGU | -0.407 | -0.175 | 0.0665 | -0.441 | 0.47 | 0.0474 | 0.0217 | -0.25 | -0.406 | -0.54 | -0.662 | -0.487 | -0.194 | 0.251
ACAGCAGGCACAGACAGGCAG | -0.408 | -1.08 | -0.152 | -0.306 | -0.134 | -0.201 | -0.0632 | -1.17 | 0.191 | 1.37 | 0.072 | 0.215 | -0.292 | 1.63
CUUUCAGUCGGAUGUUUACAGC | 0.0637 | -0.714 | -0.0926 | 0.423 | 0.713 | 0 | -0.326 | -0.118 | 0.359 | -0.685 | -0.851 | 0.295 | 0.358 | -0.248
AUCACAUUGCCAGGGAUUUCC | -1.67 | 0.281 | 0.0652 | -0.452 | -0.3 | 0.592 | -0.00223 | 0.197 | -0.492 | 0.394 | -0.216 | 0.826 | -1.29 | 2.06
AGGCAGUGUAUUGUUAGCUGGC | 1.59 | -0.179 | 0.842 | 0.697 | -4.72 | -5.92 | -2.42 | 0.156 | -4.34 | -4.67 | 0.369 | -1.56 | 1.19 | 0.15
CUACAAAGGGAAGCACUUUCUC | -0.805 | 0.77 | -0.7 | -1.25 | 0.666 | -0.614 | 0.411 | 0.757 | 0.148 | 0.716 | 1.76 | 0.032 | -1.31 | -3.59
AUCAGCAAACAUUUAUUGUGUG | 0.0901 | -1.04 | -0.701 | -1.06 | 1.62 | -0.181 | -0.19 | -0.934 | 0.157 | 1.01 | 1.35 | 1.07 | 0.16 | 1.25

Source: the supplement of paper PMC5844555
